Test results taken from publication PMC6257622, “Discovery and Structure–Activity-Relationship Study of N-Alkyl-5-hydroxypyrimidinone Carboxamides as Novel Antitubercular Agents Targeting Decaprenylphosphoryl-β-D-ribose 2′-Oxidase” (Journal of Medicinal Chemistry, 2018).
Values after ≈ are worked out from the molar mass of the structure shown. Values joined by “and” are separate entries in the source; they are usually repeats but may differ in a detail not shown here. Equal values may be shown once. Read-outs that look alike come from different tables or passages of the source.

Columns and labels:
[1] = C57Bl/6 mice, oral, 10 mg/kg single dose
iniBAC promoter = format: cell-based, Mycobacterium tuberculosis
HepG2 cells = assay: in vitro; format: cell-based
in vitro = format: cell-based; conditions: human; HepG2 cells in DMEM/10% FBS supplemented with glucose; read-out: Cytotoxicity (IC50) Glucose
[2] = tested on: Mtb in J774 murine macrophages; assay: Intracellular killing assay in murine macrophage J774; conditions: 1–50-fold MIC, 4 or 7 days
Procedure: For the ex vivo efficacy test, J774 cells (5 × 10^5 cells/well) were seeded in flat-bottom 24-well plates (Corning Inc.) in DMEM GlutaMAX (Gibco/ThermoFisher Scientific) supplemented with 10% fetal-bovine serum, 20 mM HEPES, and 0.5 mM sodium pyruvate (hereafter abbreviated as DMEM/FBS). Cells were infected with Mtb (5 × 10^5 cells/well, MOI 1) for 24 h; this was followed by medium removal and washing (2×) with an equal volume of Dulbecco’s PBS. Infected cells were fed DMEM/FBS and exposed to test compounds at 1×, 10×, 20×, and 50× MIC in medium (500 μL/well). Cells were incubated at 37 °C with 95% humidity and 5% CO2 in an incubator for 7 days. The medium was changed every 4 days. After 4 and 7 days of incubation, 0.1% SDS was added to each well to lyse the J774 cells. After 5 min, the lysate was thoroughly mixed and diluted in 7H9/ADC, and appropriate dilutions were plated in duplicate on 7H11/OADC plates.

actively replicating Mtb = format: cell-based, Mycobacterium tuberculosis
Mtb strain H37Rv = assay: MIC determination against Mtb H37Rv in different media; format: cell-based, Mycobacterium tuberculosis; conditions: for antitubercular activity (in words): SAR discussion
[3] = tested on: anaerobic nonreplicating Mtb cells; format: cell-based, Mycobacterium tuberculosis; conditions: 7 days exposure, 1–50× aerobic MIC, Wayne model
Mtb cydC::aph strain = format: cell-based, Mycobacterium tuberculosis
recA and radA reporters = format: cell-based, Mycobacterium tuberculosis
[4] = HepG2 cells in DMEM/10% FBS with galactose (mitochondrial toxicity), read-out: Cytotoxicity (IC50) Galactose
[5] = Mycobacterium tuberculosis, H37RV, Mtb H37Rv in GAST (Table 2), read-out: MIC GAST
[6] = Mycobacterium tuberculosis, H37RV, supplementary CSV, read-out: MIC in 7H9/ADC
[7] = Mycobacterium tuberculosis, H37RV, supplementary CSV, read-out: MIC in GAST/Fe
[8] = Mycobacterium tuberculosis, H37RV, read-out: MIC 7H9/ADC
[9] = Mtb H37Rv in GAST (Table 2), read-out: MIC GAST
[10] = HepG2 cells in DMEM/10% FBS supplemented with glucose, read-out: Cytotoxicity (IC50) Glucose
[11] = supplementary CSV, read-out: MIC in 7H9/ADC
[12] = supplementary CSV, read-out: MIC in GAST/Fe

| Molecule | IC50 (HepG2 cells; [4]) | IC50 (in vitro) | MIC (Mtb strain H37Rv; [5]) | MIC (Mtb strain H37Rv; [6]) | MIC (Mtb strain H37Rv; [7]) | MIC (Mtb strain H37Rv; [8]) | antitubercular activity (in words) (Mtb strain H37Rv) | other results |
| --- | --- | --- | --- | --- | --- | --- | --- | --- |
| Cn1c(Cc2ccccc2C(F)(F)F)nc(C(=O)NCc2ccccc2)c(O)c1=O [Compound P01, N-Benzyl-5-hydroxy-1-methyl-6-oxo-2-(2-(trifluoromethyl)benzyl)-1,6-dihydropyrimidine-4-carboxamide] | > 100 µM | > 100 µM | 0.59 µM | 4.7 µM | 0.59 µM | 4.7 ± 1.5 µM |  | AUC [1]: 1060 ng·h/mL; CL [1]: 9.48; Tmax [1]: 1.0 h; Vd [1]: 33.7 L/kg; Cmax ([1]; suspension): 250 ng/mL; T1/2 ([1]; 10 mg/kg): 4 h and 4.1 h; reporter-gene assay cell wall (iniBAC promoter): positive; activity against Mtb replication in J774 murine macrophages [2]: active; logarithmic reduction in colony-forming units (actively replicating Mtb): 1–2 log; MIC (Mtb strain H37Rv; Mycobacterium tuberculosis, H37RV, Mtb H37Rv, GAST medium (Table 1), read-out: MIC GAST): 0.4 ± 0.2 µM; MIC (Mtb strain H37Rv; Mycobacterium tuberculosis, H37RV, pH 6, read-out: MIC nitrite/butyrate): 12.5 µM; MIC (Mtb strain H37Rv; Mycobacterium tuberculosis, H37RV, read-out: MIC Chol): 1.6 µM; MIC (Mtb strain H37Rv; Mycobacterium tuberculosis, H37RV, read-out: MIC GBSA or DBSA): 3.1 µM; MIC (Mtb strain H37Rv; Mycobacterium tuberculosis, H37RV, read-out: MIC in 7H9/ADC): ~1.9 µg/mL; MIC (Mtb strain H37Rv; Mycobacterium tuberculosis, H37RV, read-out: MIC, DprE1 wild type): 3.13 µM; MIC (Mtb strain H37Rv; read-out: MIC 7H9/ADC): 4.7 µM; bactericidal activity against anaerobic nonreplicating Mtb [3]: lacked bactericidal activity; MIC CydKO (Mtb cydC::aph strain): 6.2 µM (≈ 2.59 µg/mL); reporter-gene assay DNA damage (recA and radA reporters): no induction |
| Cn1c(Cc2ccccc2)nc(C(=O)NCc2ccccc2)c(O)c1=O [Compound P02, N,2-Dibenzyl-5-hydroxy-1-methyl-6-oxo-1,6-dihydropyrimidine-4-carboxamide] | > 100 µM | > 100 µM | 3.1 µM | 9.4 µM | 3.1 µM | 9.4 µM |  |  |
| CCn1c(Cc2ccccc2C(F)(F)F)nc(C(=O)NCc2ccccc2)c(O)c1=O [Compound P04, N-Benzyl-1-ethyl-5-hydroxy-6-oxo-2-(2-(trifluoromethyl)benzyl)-1,6-dihydropyrimidine-4-carboxamide] | > 100 µM | > 100 µM | 0.4 µM | 2.3 µM | 0.39 µM | 2.3 µM |  | activity against Mtb replication in J774 murine macrophages [2]: active; MIC (Mtb strain H37Rv; [9]): 0.39 µM |
| Cn1c(Cc2ccccc2C(F)(F)F)nc(C(=O)Nc2ccccc2)c(O)c1=O [Compound P05, 5-Hydroxy-1-methyl-6-oxo-N-phenyl-2-(2-(trifluoromethyl)benzyl)-1,6-dihydropyrimidine-4-carboxamide] | > 100 µM | > 100 µM | 1.6 µM | 18.8 µM | 1.6 µM | 18.8 µM |  | fold increase in MIC (reduced potency) compared with P01 (Mtb strain H37Rv): around 4 fold |
| Cn1c(Cc2ccccc2C(F)(F)F)nc(C(=O)NCC2CCCCC2)c(O)c1=O [Compound P06, N-(Cyclohexylmethyl)-5-hydroxy-1-methyl-6-oxo-2-(2-(trifluoromethyl)benzyl)-1,6-dihydropyrimidine-4-carboxamide] | > 100 µM | > 100 µM | 12.5 µM | > 100 µM | 12.5 µM | > 100 µM |  |  |
| Cn1c(Cc2ccccc2C(F)(F)F)nc(C(=O)NCc2ccccn2)c(O)c1=O [Compound P07, 5-Hydroxy-1-methyl-6-oxo-N-(pyridin-2-ylmethyl)-2-(2-(trifluoromethyl)benzyl)-1,6-dihydropyrimidine-4-carboxamide] | > 100 µM | > 100 µM | 1.2 µM | 3.1 µM | 1.2 µM | 3.1 µM |  | activity against Mtb replication in J774 murine macrophages [2]: active |
| Cn1c(Cc2ccccc2C(F)(F)F)nc(C(=O)NCc2cccnc2)c(O)c1=O [Compound P08, 5-Hydroxy-1-methyl-6-oxo-N-(pyridin-3-ylmethyl)-2-(2-(trifluoromethyl)benzyl)-1,6-dihydropyrimidine-4-carboxamide] | > 100 µM | > 100 µM | 4.7 µM | 18.8 µM | 4.7 µM | 18.8 µM |  |  |
| Cn1c(Cc2ccccc2C(F)(F)F)nc(C(=O)NCc2ccccc2F)c(O)c1=O [Compound P09, N-(2-Fluorobenzyl)-5-hydroxy-1-methyl-6-oxo-2-(2-(trifluoromethyl)benzyl)-1,6-dihydropyrimidine-4-carboxamide] | > 100 µM | > 100 µM | 0.59 µM | 4.7 µM | 0.59 µM | 4.7 µM |  | activity against Mtb replication in J774 murine macrophages [2]: active; fold more potent than regioisomer P10 (Mtb strain H37Rv; o-F versus p-F): > 4 fold |
| Cn1c(Cc2ccccc2C(F)(F)F)nc(C(=O)NCc2ccc(F)cc2)c(O)c1=O [Compound P10, N-(4-Fluorobenzyl)-5-hydroxy-1-methyl-6-oxo-2-(2-(trifluoromethyl)benzyl)-1,6-dihydropyrimidine-4-carboxamide] | > 100 µM | > 100 µM | 2.3 µM | 18.8 µM | 2.3 µM | 18.8 µM |  |  |
| Cn1c(Cc2ccccc2C(F)(F)F)nc(C(=O)NCc2ccc3c(c2)OCO3)c(O)c1=O [Compound P11, N-(Benzo[d][1,3]dioxol-5-ylmethyl)-5-hydroxy-1-methyl-6-oxo-2-(2-(trifluoromethyl)benzyl)-1,6-dihydropyrimidine-4-carboxamide] | > 100 µM | > 100 µM | 37.5 µM | > 100 µM | 37.5 µM | > 100 µM |  |  |
| CN(Cc1ccccc1)C(=O)c1nc(Cc2ccccc2C(F)(F)F)n(C)c(=O)c1O [Compound P12, N-Benzyl-5-hydroxy-N,1-dimethyl-6-oxo-2-(2-(trifluoromethyl)benzyl)-1,6-dihydropyrimidine-4-carboxamide] | > 100 µM | > 100 µM | > 100 µM | > 100 µM | > 100 µM | > 100 µM | loss of activity |  |
| CC(NC(=O)c1nc(Cc2ccccc2C(F)(F)F)n(C)c(=O)c1O)c1ccccc1 (centres unmarked) [Compound P13, 5-Hydroxy-1-methyl-6-oxo-N-(1-phenylethyl)-2-(2-(trifluoromethyl)benzyl)-1,6-dihydropyrimidine-4-carboxamide] | > 100 µM | > 100 µM | > 100 µM | > 100 µM | > 100 µM | > 100 µM | loss of activity |  |
| O=C(NCc1ccccc1)c1nc(Cc2ccccc2C(F)(F)F)[nH]c(=O)c1O [Compound P14, N-Benzyl-5-hydroxy-6-oxo-2-(2-(trifluoromethyl)benzyl)-1,6-dihydropyrimidine-4-carboxamide] | > 100 µM | > 100 µM | > 100 µM | > 100 µM | > 100 µM | > 100 µM | not tolerated |  |
| CC(c1ccccc1C(F)(F)F)c1nc(C(=O)NCc2ccccc2)c(O)c(=O)n1C (centres unmarked) [Compound P15, N-Benzyl-5-hydroxy-1-methyl-6-oxo-2-(1-(2-(trifluoromethyl)phenyl)ethyl)-1,6-dihydropyrimidine-4-carboxamide] | > 100 µM | > 100 µM | 3.1 µM | 18.3 µM | 3.1 µM | 18.3 µM |  | fold increase in MIC (reduced potency) compared with P01 (Mtb strain H37Rv): 5 fold |
| COc1c(C(=O)NCc2ccccc2)nc(Cc2ccccc2C(F)(F)F)n(C)c1=O [Compound P17, N-Benzyl-5-methoxy-1-methyl-6-oxo-2-(2-(trifluoromethyl)benzyl)-1,6-dihydropyrimidine-4-carboxamide] | > 100 µM | > 100 µM | > 100 µM | > 100 µM | > 100 µM | > 100 µM | inactive |  |
| Cn1c(Cc2ccccc2C(F)(F)F)nc(C(=O)CCc2ccccc2)c(O)c1=O [Compound P18, 5-Hydroxy-3-methyl-6-(3-phenylpropanoyl)-2-(2-(trifluoromethyl)benzyl)pyrimidin-4(3H)-one] | > 100 µM | > 100 µM | 12.5 µM | 100 µM | 12.5 µM | 100 µM |  |  |
| N-Benzyl-2-ethyl-5-hydroxy-1-methyl-6-oxo-1,6-dihydropyrimidine-4-carboxamide [Compound P03] | > 100 µM |  |  |  |  |  | complete loss of potency | IC50 (HepG2 cells; [10]): > 100 µM; MIC (Mtb strain H37Rv; [9]): >100 µM; MIC (Mtb strain H37Rv; read-out: MIC 7H9/ADC): >100 µM; MIC (Mtb strain H37Rv; [11]): >100 µM; MIC (Mtb strain H37Rv; [12]): >100 µM |
| N-Benzyl-5-hydroxy-6-methoxy-2-(2-(trifluoromethyl)benzyl)pyrimidine-4-carboxamide [Compound P16] | > 100 µM |  |  |  |  |  | inactive | IC50 (HepG2 cells; [10]): > 100 µM; MIC (Mtb strain H37Rv; [9]): 37.5 µM; MIC (Mtb strain H37Rv; read-out: MIC 7H9/ADC): >100 µM; MIC (Mtb strain H37Rv; [11]): >100 µM; MIC (Mtb strain H37Rv; [12]): 37.5 µM |
